Data as given in patent US8247422B2, “Use of condensed pyrimidine derivatives for the treatment of rheumatoid arthritis” (priority 2007, dated 2012).

Assays:
[1] = system: adjuvant-induced rheumatoid arthritis in rats; assay: Adjuvant-induced RA (AIA) model in rats; format: in vivo, Male Lewis rats; parameters: % Inhibition of swelling in each time interval relative to negative control: concentration or dose not given beside the values; settings: for Mean right hind paw volume (ml water displaced): CFA treated paw, acute phase; for Mean left hind paw volume (ml water displaced): CFA untreated paw, delayed phase
Experimental: The ability of compounds of formula I to treat adjuvant-induced rheumatoid arthritis in rats was examined. The AIA model is one thought mainly to involve T cell-mediated mechanisms.
Male Lewis rats weighing 200±10 g were housed in groups of 6 with free access to food and water. 0.1 ml CFA (Mycobacterium tuberculosis 3 mg/ml) was injected into the subplantar region of the right bind paw of each rat on day 1 of the study.
Test substances were first dissolved in NaOH (if required) as explained above then suspended in 2% Tween 80 to a range of concentrations. 10 ml/kg was administered by oral gavage for 21 consecutive days, beginning (on day 1) 1 hour before injection of CFA. 2% Tween 80 was used as a negative control and methotrexate in 2% Tween 80 as a positive control.
Right hind paw volumes were measured by water displacement on day 0, 4 hours after the CFA injection on day 1, and on days 7, 14, and 21. Left hind paw volumes were measured by water displacement on days 0, 1, 7, 14, and 21. […] 30% or more reduction in paw volume relative to the negative control was considered significant anti-inflammatory activity. Body weight was also recorded on days 1, 7, 14, and 21. Symptoms of swelling in the front paws, tail, nose and ears were recorded on day 21.

[2] = in vivo; cited from earlier work
[3] = system: collagen-induced rheumatoid arthritis in mice
rheumatoid arthritis = settings: RA patients; cited from earlier work

SMILES: CN(Cc1cnc2nc(N)nc(N)c2n1)c1ccc(C(=O)N[C@@H](CCC(=O)O)C(=O)O)cc1 [MTX, methotrexate]
- Mean right hind paw volume (ml water displaced) ([1]; day 0, oral gavage): 1.06 mL
- Mean right hind paw volume (ml water displaced) ([1]; day 1 (4 hours after CFA), oral gavage): 1.56 mL
- Mean right hind paw volume (ml water displaced) ([1]; day 7, oral gavage): 1.79 mL
- Mean right hind paw volume (ml water displaced) ([1]; day 14, oral gavage): 1.48 mL
- Mean right hind paw volume (ml water displaced) ([1]; day 21, oral gavage): 1.37 mL
- Mean left hind paw volume (ml water displaced) ([1]; day 0, oral gavage): 1.06 mL
- Mean left hind paw volume (ml water displaced) ([1]; day 1, oral gavage): 1.06 mL
- Mean left hind paw volume (ml water displaced) ([1]; day 7, oral gavage): 1.08 mL
- Mean left hind paw volume (ml water displaced) ([1]; day 14, oral gavage): 1.10 mL
- Mean left hind paw volume (ml water displaced) ([1]; day 21, oral gavage): 1.14 mL
- % Inhibition of swelling in each time interval relative to negative control ([1]; left hind paw (CFA untreated), days 0-14): 95%
- % Inhibition of swelling in each time interval relative to negative control ([1]; left hind paw (CFA untreated), days 0-21): 94%
- % Inhibition of swelling in each time interval relative to negative control ([1]; right hind paw (CFA treated), days 0-1): 15%
- % Inhibition of swelling in each time interval relative to negative control ([1]; right hind paw (CFA treated), days 0-7): 34%
- % Inhibition of swelling in each time interval relative to negative control ([1]; right hind paw (CFA treated), days 0-14): 73%
- % Inhibition of swelling in each time interval relative to negative control ([1]; right hind paw (CFA treated), days 0-21): 83%
- fraction undergoing fast elimination unchanged after uptake [2]: more than 80%
- therapeutic dose as percentage of maximum tolerated dose ([3]; mice, intraperitoneal, once daily for 6 weeks): twice as high
- signs of anaemia at the end of the study (red blood cell count, FIG. 3) ([3]; mouse, in vivo): severe signs of anaemia
- patients who do not respond sufficiently well to treatment with methotrexate alone (rheumatoid arthritis): around 35%
